Like-named read-outs stand apart in the source and are kept apart here.
Legend:
[1] = system: MDA-MB-231 cells; experiment: [3H]-thymidine incorporation assay, MDA-MB-231; assay type: cell-based; details: Homo sapiens
Method: The antiproliferative properties of the newly synthesized compound were investigated through the [^3H]-thymidine incorporation assay, as described in the literature. Cells culture was exposed to various concentrations of Les-3331 acid and reference drug for 24 h. Thereafter, cells were washed with PBS and 1 mL of fresh medium was added to each well. Then, 0.5 µCi of radioactive [^3H]-thymidine was appended, and the incubation continued for four hours. After the following incubation, the liquid was aspirated and the plate was placed on ice. Cells were washed twice with 1 mL of 0.05 M Tris-HCl buffer comprising 0.11 M NaCl, then twice after that with 1 mL of 5% TCA acid (Stanlab, Lublin, Poland). Finally, the cells were dissolved with 1 mL of 0.1 M NaOH with 1% SDS (Sigma-Aldrich, St. Louis, MO, USA) at room temperature (RT). The resulting cell lysates were transferred into scintillation vials containing 2 mL of scintillation fluid. The radioactivity was determined using Scintillation Counter 1900 TR, TRI-CARB (Packard, Perkin Elmer, Inc., San Jose, CA, USA). The intensity of DNA biosynthesis in cells was expressed in dpm of radioactive thymidine incorporated in the DNA. The radioactivity observed in untreated control cells was taken as 100%. Values from the tested compounds were expressed as a percentage of the control value.

[2] = system: MDA-MB-231 cells; experiment: Annexin V binding assay (flow cytometry), MDA-MB-231; assay type: cell-based, human; details: 24 h
Method: The effect of Les-3331 and reference drug on the induction of apoptosis process in human breast cancer cell lines was evaluated using a flow cytometer (BD FACSCanto II, Becton Dickinson Biosciences Systems, San Jose, CA, USA) and Annexin V binding Apoptosis Detection Kit II (BD Biosciences, San Diego, CA, USA). The Les-3331 and reference drug were used in 1 µM and 5 µM concentrations. The test was carried out after 24 h incubation with the tested compounds according to the manufacturer’s protocol and was previously described by our research group. Analysis of the obtained results was performed using FACSDiva software (version 6.1.3, BD Biosciences Systems, San Jose, CA, USA). The equipment was calibrated with BD Cytometer Setup and Tracking Beads (BD Biosciences, San Diego, CA, USA).

[3] = system: MCF-7 cells; experiment: Mitochondrial membrane potential analysis (JC-1), MCF-7; assay type: cell-based, human; details: 24 h
Method: (§1) The JC-1 MitoScreen kit (BD Biosciences, San Diego, CA, USA) was used for the mitochondrial membrane potential (ΔΨm) analysis. The assay was performed using a flow cytometer (BD FACSCanto II, Becton Dickinson Biosciences Systems, San Jose, CA, USA). The Les-3331 and reference drug were used in 1 µM and 5 µM concentrations. After 24 h incubation with tested compounds, the assay was performed as described in the literature. Analysis of the obtained results was performed using FACSDiva software (version 6.1.3, BD Biosciences Systems, San Jose, CA, USA). The equipment was calibrated with BD Cytometer Setup and Tracking Beads (BD Biosciences, San Diego, CA, USA).

[4] = system: MDA-MB-231 cells; experiment: Mitochondrial membrane potential analysis (JC-1), MDA-MB-231; assay type: cell-based, human; details: 24 h
Method: as §1

[5] = system: caspase-8; experiment: Caspase-8 concentration in MCF-7 cell lysates (ELISA); assay type: cell-based, human; details: 24 h, control 0.901 ng/mL
Method: (§2) High sensitivity assay kits (EIAab Science Co., Ltd., Wuhan, China; Abcam plc., Cambridge, United Kingdom; Cloud-Clone Corp., Katy, TX, USA) were used to determine the concentrations of selected proteins in cell lysates after 24 h incubation with novel compound and reference drug in 1 µM and 5 µM concentrations. In brief, after trypsinization, cells were washed thrice with cold PBS and centrifuged at 1000× g for 5 min at 4 °C. Then, cells (1.5 × 10^6) were suspended in lysis buffer for whole-cell lysates. After the second centrifugation, cellular supernatants were frozen immediately at −70 °C. Untreated cancer cells were taken as a control.
(§3) The microtiter plates provided in the kits were pre-coated with an antibody specific to the analyzed antigen. The tests were carried out according to the manufacturer’s protocols.

[6] = system: caspase-8; experiment: Caspase-8 concentration in MDA-MB-231 cell lysates (ELISA); assay type: cell-based, human; details: 24 h, control 0.828 ng/mL
Method: as §2, §3

[7] = system: LC3A; experiment: LC3A concentration in MDA-MB-231 cell lysates (ELISA); assay type: cell-based, human; details: 24 h, control 2.965 ng/mL
Method: as §2, with “after 24 h incubation with novel compound and reference drug in 1 µM and 5 µM concentrations.” left out
as §3

[8] = system: topoisomerase II; experiment: Topoisomerase II concentration in MCF-7 cell lysates (ELISA); assay type: cell-based, human; details: 24 h, control 2.260 ng/mL
Method: as §2, §3

[9] = system: topoisomerase IIα; experiment: Flow cytometric analysis of anti-topoisomerase IIα antibody, MDA-MB-231; assay type: cell-based, human; details: 24 h
Method: To confirm the ELISA results, flow cytometric analysis of Top II activity using an anti-topoisomerase IIα antibody conjugated with phycoerythrin (PE) was performed. The Les-3331 and etoposide were used at 1 µM and 5 µM concentrations. Cancer cells were incubated for 24 h with tested compounds and the assay was carried out in accordance with the manufacturer’s protocol. Briefly, cells were centrifuged and resuspended in 4% formaldehyde. Then, cells were incubated at RT for 15 min and subsequently washed with excess PBS and centrifuged. Thereafter, ice-cold 90% methanol was added to the cells and they were incubated for 1 h in an ice bath. Next, cells were washed with excess PBS and centrifuged again. In the meantime, the primary antibody was diluted (1:100) in PBS. Then, cells were resuspended in the prepared primary antibody (100 µL) and incubated at RT, protected from light, for 1 h. Finally, cells were washed and resuspended in PBS (300 µL). The prepared samples were measured immediately. Analysis of the obtained results was performed using a flow cytometer (BD FACSCanto II, Becton Dickinson Biosciences Systems, San Jose, CA, USA) and FACSDiva software (v6.1.3, BD Biosciences Systems, San Jose, CA, USA). The equipment was calibrated with BD Cytometer Setup and Tracking Beads (BD Biosciences, San Diego, CA, USA).

Compound | IC50 ([1]; MDA-MB-231, read-out: IC50, cell proliferation ([3H]-thymidine incorporation)) | % of late and early apoptotic cells ([2]; MDA-MB-231, 1 µM) | % of late and early apoptotic cells ([2]; MDA-MB-231, 5 µM) | % of cells with decreased ΔΨm ([3]; MCF-7, 1 µM) | % of cells with decreased ΔΨm ([3]; MCF-7, 5 µM) | % of cells with decreased ΔΨm ([4]; MDA-MB-231, 1 µM) | % of cells with decreased ΔΨm ([4]; MDA-MB-231, 5 µM) | Casp-8 concentration ([5]; 1 µM) | Casp-8 concentration ([5]; 5 µM) | Casp-8 concentration ([6]; MDA-MB-231, 1 µM) | Casp-8 concentration ([6]; MDA-MB-231, 5 µM) | LC3A concentration ([7]; MDA-MB-231, 5 µM) | Top II concentration ([8]; MCF-7, 1 µM) | Top II concentration ([8]; MCF-7, 5 µM) | % of cells without anti-topoisomerase IIα antibody ([9]; MDA-MB-231, 1 µM) | % of cells without anti-topoisomerase IIα antibody ([9]; MDA-MB-231, 5 µM) | IC50 ([1]; MDA-MB-231, 24 h incubation, read-out: IC50, cell proliferation ([3H]-thymidine incorporation)) | LC3A concentration ([7]; MDA-MB-231, 1 µM)
CC(C)C(C(=O)O)N1C(=O)/C(=C/C(Cl)=C/c2ccc([N+](=O)[O-])cc2)SC1=S (stereo not drawn) [Les-3331, 2-{5-[(Z,2Z)-2-chloro-3-(4-nitrophenyl)-2-propenylidene]-4-oxo-2-thioxothiazolidin-3-yl}-3-methylbutanoic acid] | 8.01 µM | 5.1% | 18.1% | 9.8% | 25.5% | 21.8% | 36.3% | 1.050 ng/mL | 1.253 ng/mL | 1.012 ng/mL | 1.067 ng/mL | 1.258 ng/mL | 0.900 ng/mL | 0.625 ng/mL | 5.4% | 30.9% | – | –
COc1cc([C@@H]2c3cc4c(cc3[C@@H](O[C@@H]3O[C@@H]5CO[C@@H](C)O[C@H]5[C@H](O)[C@H]3O)[C@H]3COC(=O)[C@H]23)OCO4)cc(OC)c1O [Etoposide, reference compound] | – | 4.7% | 7.2% | 10.2% | 18.5% | 11.4% | 15.6% | 0.812 ng/mL | 0.951 ng/mL | 0.836 ng/mL | 0.857 ng/mL | 1.313 ng/mL | 1.587 ng/mL | 1.443 ng/mL | 7.5% | 9.1% | > 20 µM | 2.800 ng/mL

From publication PMC9032233, “2-{5-[(Z,2Z)-2-Chloro-3-(4-nitrophenyl)-2-propenylidene]-4-oxo-2-thioxothiazolidin-3-yl}-3-methylbutanoic Acid as a Potential Anti-Breast Cancer Molecule” (International Journal of Molecular Sciences, 2022)
